Where a name gives a salt, the structure may show the parent alone.
The compounds below were run against T1, 5-HT3 (Homo sapiens, UniProt P46098) (assay: Compound affinity for the human 5-HT3 receptor (Assay B), SPA radioligand binding with [9-methyl-3H]BRL-43694). Conditions: Assay B (method B unless otherwise annotated); read-out: 5-HT3 Ki.
T1 sequence (P46098 24-478): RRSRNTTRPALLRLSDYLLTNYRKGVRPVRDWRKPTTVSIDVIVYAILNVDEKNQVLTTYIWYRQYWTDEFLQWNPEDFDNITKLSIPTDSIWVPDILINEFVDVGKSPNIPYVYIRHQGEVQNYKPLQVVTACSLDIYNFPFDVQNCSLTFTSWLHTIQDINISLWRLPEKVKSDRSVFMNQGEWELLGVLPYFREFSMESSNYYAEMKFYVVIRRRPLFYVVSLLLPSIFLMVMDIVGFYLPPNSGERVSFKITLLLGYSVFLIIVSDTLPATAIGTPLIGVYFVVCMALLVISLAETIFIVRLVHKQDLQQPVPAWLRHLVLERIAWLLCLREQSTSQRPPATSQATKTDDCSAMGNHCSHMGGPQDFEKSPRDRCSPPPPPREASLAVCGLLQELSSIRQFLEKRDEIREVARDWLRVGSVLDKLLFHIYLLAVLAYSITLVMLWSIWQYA
Set-up: purchased Perkin Elmer
Procedure, shortened: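 Ten competitor concentrations in duplicate; specific binding (total minus nonspecific) fitted for IC50, converted to Ki by Cheng-Prusoff.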

In order of falling Ki:
1. CN1[C@@H]2CCC[C@H]1C[C@@H](NC(=O)c1c(F)ccc3oc(N)nc13)C2 [Example 128, Endo-N-(9-Methyl-9-azabicyclo[3.3.1]nonan-3-yl)-2-amino-5-fluorobenzoxazole-4-carboxamide Hydrochloride]  124 nM
2. Nc1nc2c(C(=O)NC3CN4CCC3CC4)c(F)ccc2o1 [Example 139, (S)—N-(quinulidin-8-yl)-2-amino-5-fluorobenzoxazole-4-carboxamide Hydrochloride]  67.4 nM
3. C[C@H]1CS(=O)(=O)C[C@H](C)N1c1nc2c(C(=O)NC3CC4CCCC(C3)N4C)cccc2o1 (stereo partly drawn) [Example 123, Endo-N-(9-methyl-9-azabicyclo[3.3.1]nonan-3-yl)-2-((3S,5S)/(3R,5R)-3,5-dimethylthiomorpholine 1,1-dioxide)benzoxazole-4-carboxamide Hydrochloride]  57 nM
4. Nc1nc2c(C(=O)NC3CN4CCC3CC4)ccc(F)c2o1 [Example 112, (S)—N-(quinulidin-8-yl)-2-amino-7-fluorobenzoxazole-4-carboxamide Hydrochloride]  33.3 nM
5. C[C@H]1CNC[C@H](C)N1c1nc2c(C(=O)NC3CN4CCC3CC4)ccc(F)c2o1 (stereo partly drawn) [Example 118, (S)—N-(Quinulidin-8-yl)-2-((2S,6S)-2,6-dimethylpiperazine-1-yl)-7-fluorobenzoxazole-4-carboxamide hydrochloride]  26.8 nM
6. Cc1cc(C(=O)NC2CN3CCC2CC3)c2nc(N)oc2c1 [Example 127, (S)—N-(quinulidin-8-yl)-2-amino-6-methylbenzoxazole-4-carboxamide Hydrochloride]  20 nM
7. C[C@H]1CN(C)C(=O)[C@H](C)N1c1nc2c(C(=O)NC3CN4CCC3CC4)cccc2o1 (stereo partly drawn) [Example 124, N-(Quinuclidine-8-yl)-2-((2S,6S)-2,4,6-trimethyl-3-oxopiperazine-1-yl)benzoxazole-4-carboxamide Hydrochloride]  17.7 nM
8. CN1C2CCCC1CC(NC(=O)c1cccc3oc(N4CCN[C@H]5CCCC[C@@H]54)nc13)C2 (stereo partly drawn) [Example 126, Endo-N-(9-Methyl-9-azabicyclo[3.3.1]nonan-3-yl)-2-((4aS,8aS)-octahydroquinoxalin-1(2H)-yl)benzoxazole-4-carboxamide Dihydrochloride]  16.5 nM
9. CNc1nc2c(C(=O)NC3CN4CCC3CC4)cccc2o1 [Example 113, (S)—N-(quinulidin-8-yl)-2-methylaminobenzoxazole-4-carboxamide Hydrochloride]  14.5 nM
10. Cc1cc(C(=O)N[C@H]2C[C@H]3CCC[C@@H](C2)N3C)c2nc(N)oc2c1 [Example 129, Endo-2-amino-6-methyl-N-(9-Methyl-9-azabicyclo[3.3.1]nonan-3-yl)benzoxazole-4-carboxamide Hydrochloride]  10.7 nM
11. CN1[C@@H]2CCC[C@H]1C[C@@H](NC(=O)c1cc(F)cc3oc(N)nc13)C2 [Example 121, Endo-2-amino-6-fluoro-N-(9-Methyl-9-azabicyclo[3.3.1]nonan-3-yl)benzoxazole-4-carboxamide Hydrochloride]  9 nM
12. C[C@H]1CNC[C@H](C)N1c1nc2c(C(=O)NC3CC4CCCC(C3)N4C)cc(Cl)cc2o1 (stereo partly drawn) [Example 114, Endo-N-(9-methyl-9-azabicyclo[3.3.1]nonan-3-yl)-6-chloro-2-((2S,6S)-2,6-dimethylpiperazin-1-yl)benzoxazole-4-carboxamide Hydrochloride]  6.6 nM
13. C[C@H]1CN(CC2CC2)C[C@H](C)N1c1nc2c(C(=O)NC3CC4CCCC(C3)N4C)cccc2o1 (stereo partly drawn) [Example 119, Endo-N-(9-methyl-9-azabicyclo[3.3.1]nonan-3-yl)-2-((2S,6S)-4-(cyclopropylmethyl)-2,6-dimethylpiperazin-1-yl)benzoxazole-4-carboxamide Hydrochloride]  6.6 nM
14. CCN(CC)c1nc2c(C(=O)N[C@@H]3CN4CCC3CC4)cccc2o1 [Example 115, (S)—N-(quinuclidine-8-yl)-2-diethylaminobenzoxazole-4-carboxamide Hydrochloride]  4.8 nM
15. C[C@H]1CN(C(=O)C(C)(C)C)C[C@H](C)N1c1nc2c(C(=O)NC3CC4CCCC(C3)N4C)cccc2o1 (stereo partly drawn) [Example 130, Endo-N-(9-methyl-9-azabicyclo[3.3.1]nonan-3-yl)-2-((2S,6S)-2,6-dimethyl-4-pivaloylpiperazin-1-yl)benzoxazole-4-carboxamide Hydrochloride]  2.8 nM
16. C[C@H]1CN(C(=O)N(C)C)C[C@H](C)N1c1nc2c(C(=O)NC3CC4CCCC(C3)N4C)cccc2o1 (stereo partly drawn) [Example 136, Endo-N-(9-methyl-9-azabicyclo[3.3.1]nonan-3-yl)-2-((2S,6S)-2,6-dimethyl-4-(dimethylcarbamoyl)piperazin-1-yl)benzoxazole-4-carboxamide Hydrochloride]  2.6 nM
17. CC(C)COC(=O)N1C[C@H](C)N(c2nc3c(C(=O)NC4CC5CCCC(C4)N5C)cccc3o2)[C@@H](C)C1 (stereo partly drawn) [Example 138, Endo-N-(9-methyl-9-azabicyclo[3.3.1]nonan-3-yl)-2-((2S,6S)-4-(isobutoxycarbonyl)-2,6-dimethylpiperazin-1-yl)benzoxazole-4-carboxamide Hydrochloride]  2.4 nM
18. C[C@H]1CN(C(=O)c2ccccc2)C[C@H](C)N1c1nc2c(C(=O)NC3CC4CCCC(C3)N4C)cccc2o1 (stereo partly drawn) [Example 117, Endo-N-(9-methyl-9-azabicyclo[3.3.1]nonan-3-yl)-2-((2S,6S)-4-benzoyl-2,6-dimethylpiperazin-1-yl)benzoxazole-4-carboxamide Hydrochloride]  2.3 nM
19. C[C@H]1CN(C)C[C@H](C)N1c1nc2c(C(=O)NC3CC4CCCC(C3)N4C)cccc2o1 (stereo partly drawn) [Example 122, Endo-N-(9-methyl-9-azabicyclo[3.3.1]nonan-3-yl)-2-((2S,6S-2,4,6-trimethylpiperazin-1-yl)benzoxazole-4-carboxamide Hydrochloride]  2.3 nM
20. CC(=O)N1C[C@H](C)N(c2nc3c(C(=O)NC4CC5CCCC(C4)N5C)cccc3o2)[C@@H](C)C1 (stereo partly drawn) [Example 110, Endo-N-(9-Methyl-9-azabicyclo[3.3.1]nonan-3-yl)-2-((2S,6S)-4-acetyl-2,6-dimethylpiperazin-1-yl)benzoxazole-4-carboxamide Hydrochloride]  2.2 nM
21. COC(=O)N1C[C@H](C)N(c2nc3c(C(=O)NC4CC5CCCC(C4)N5C)cccc3o2)[C@@H](C)C1 (stereo partly drawn) [Example 125, Endo-(3S,5S)-Methyl 3,5-dimethyl-4-(4-(9-methyl-9-azabicyclo[3.3.1]nonan-3-ylcarbamoyl)benzoxazol-2-yl)piperazine-1-carboxylate Hydrochloride]  2.1 nM
22. CN1[C@@H]2CCC[C@H]1C[C@@H](NC(=O)c1cc(Cl)cc3oc(N)nc13)C2 [Example 111, Endo-2-amino-6-chloro-N-(9-Methyl-9-azabicyclo[3.3.1]nonan-3-yl)benzoxazole-4-carboxamide Hydrochloride]  2 nM
23. CC(C)C(=O)N1C[C@H](C)N(c2nc3c(C(=O)NC4CC5CCCC(C4)N5C)cccc3o2)[C@@H](C)C1 (stereo partly drawn) [Example 135, Endo-N-(9-methyl-9-azabicyclo[3.3.1]nonan-3-yl)-2-((2S,6S)-4-isobutyryl-2,6-dimethylpiperazin-1-yl)benzoxazole-4-carboxamide Hydrochloride]  2 nM
24. C[C@H]1CN(C)C(=O)[C@H](C)N1c1nc2c(C(=O)NC3CC4CCCC(C3)N4C)cccc2o1 (stereo partly drawn) [Example 120, Endo-N-(9-methyl-9-azabicyclo[3.3.1]nonan-3-yl)-2-((2S,6S)-2,4,6-trimethyl-3-oxopiperazine-1-yl)benzoxazole-4-carboxamide Hydrochloride]  1.9 nM
25. C[C@H]1CN(C(=O)C2CCCCC2)C[C@H](C)N1c1nc2c(C(=O)NC3CC4CCCC(C3)N4C)cccc2o1 (stereo partly drawn) [Example 132, Endo-N-(9-methyl-9-azabicyclo[3.3.1]nonan-3-yl)-2-((2S,6S)-4-(cyclohexanecarbonyl)-2,6-dimethylpiperazin-1-yl)benzoxazole-4-carboxamide Hydrochloride]  1.9 nM
26. C[C@H]1CN(C(=O)C2CCCC2)C[C@H](C)N1c1nc2c(C(=O)NC3CC4CCCC(C3)N4C)cccc2o1 (stereo partly drawn) [Example 133, Endo-N-(9-methyl-9-azabicyclo[3.3.1]nonan-3-yl)-2-((2S,6S-4-(cyclopentanecarbonyl)-2,6-dimethylpiperazin-1-yl)benzoxazole-4-carboxamide Hydrochloride]  1.8 nM
27. C[C@H]1CN(CC(F)(F)F)C[C@H](C)N1c1nc2c(C(=O)NC3CC4CCCC(C3)N4C)cccc2o1 (stereo partly drawn) [Example 137, Endo-N-(9-methyl-9-azabicyclo[3.3.1]nonan-3-yl)-2-((2S,6S)-2,6-dimethyl-4-(2,2,2-trifluoroethyl)piperazin-1-yl)benzoxazole-4-carboxamide Hydrochloride]  1.8 nM
28. CCC(=O)N1C[C@H](C)N(c2nc3c(C(=O)NC4CC5CCCC(C4)N5C)cccc3o2)[C@@H](C)C1 (stereo partly drawn) [Example 134, Endo-N-(9-methyl-9-azabicyclo[3.3.1]nonan-3-yl)-2-((2S,6S)-2,6-dimethyl-4-propionylpiperazin-1-yl)benzoxazole-4-carboxamide Hydrochloride]  1.7 nM
29. C[C@H]1CN(S(C)(=O)=O)C[C@H](C)N1c1nc2c(C(=O)NC3CC4CCCC(C3)N4C)cccc2o1 (stereo partly drawn) [Example 131, Endo-N-(9-methyl-9-azabicyclo[3.3.1]nonan-3-yl)-2-((2S,6S-2,6-dimethyl-4-(methylsulfonyl)piperazin-1-yl)benzoxazole-4-carboxamide Hydrochloride]  1 nM
